Assay results as given in patent US4968609A, “Coryneform bacteria carrying recombinant DNA and a process for producing aromatic amino acids using said bacteria” (priority 1984, dated 1990).

Assays:
[1] = tested on: Brevibacterium lactofermentum AJ 12036 transformed with pAR-1 and pAR-2; experiment: Sensitivity of retransformants to m-fluorophenylalanine; assay type: cell-based; conditions: 50 chloramphenicol-resistant retransformants of AJ 12036 with pAR-1 and pAR-2
Protocol: After culturing at 30° C. for 2 weeks, about 25000 colonies resistant to chloramphenicol appeared, which were replicated in minimal medium (which contained 2% of glucose, 1% of ammonium sulfate, 0.3% of urea, 0.1% of KH2 PO4, 0.04% of MgSO4 ·7H2 O, 2 ppm of iron ions, 2 ppm of manganese ions, […] of thiamine hydrochloride, 50 μg/ml of biotin, 500 μg/ml of m-fluorophenylalanine and 10 μg/ml of chloramphenicol, pH 7.0, 1.8% of agar) to obtain 5 strains resistant to chloramphenicol and m-fluorophenylalanine.
In order to confirm that the gene was present on the recombinant plasmid carrying the DNA fragment, Brevibacterium lactofermentum AJ 12036 was again transformed using the plasmids pARl and pAR-2.
Clearly the genes imparting the m-fluorophenylalanine resistance were present on the above-described plasmids.

[2] = tested on: 3-deoxy-D-arabinoheptulonic acid-7-phosphate synthetase (DS) of Brevibacterium lactofermentum AJ 12181(AJ 12036/pAR-1); experiment: DS activity of crude enzyme solution with amino acids added, strain AJ 12181 (AJ 12036/pAR-1); conditions: 1 mM each; crude enzyme of AJ 12181 (AJ 12036/pAR-1); activity with none added = 100%
[3] = tested on: 3-deoxy-D-arabinoheptulonic acid-7-phosphate synthetase (DS) of Brevibacterium lactofermentum AJ 12036; experiment: DS activity of crude enzyme solution with amino acids added, strain AJ 12036; conditions: 1 mM each; crude enzyme of AJ 12036; activity with none added = 100%
[4] = tested on: 3-deoxy-D-arabinoheptulonic acid-7-phosphate synthetase (DS) of Brevibacterium lactofermentum AJ 11957; experiment: DS activity of crude enzyme solution with amino acids added, strain AJ 11957; conditions: 1 mM each; crude enzyme of AJ 11957; activity with none added = 100%
[5] = tested on: 3-deoxy-D-arabinoheptulonic acid-7-phosphate synthetase (DS) of Brevibacterium lactofermentum AJ 12182(AJ 12036/pAR-2); experiment: DS activity of crude enzyme solution with amino acids added, strain AJ 12182 (AJ 12036/pAR-2); conditions: 1 mM each; crude enzyme of AJ 12182 (AJ 12036/pAR-2); activity with none added = 100%

| Compound | sensitivity to m-fluorophenylalanine [1] | Residual Activity When Each Amino Acid Was Added [2] | Residual Activity When Each Amino Acid Was Added [3] | Residual Activity When Each Amino Acid Was Added [4] | Residual Activity When Each Amino Acid Was Added [5] |
| --- | --- | --- | --- | --- | --- |
| N[C@@H](Cc1cccc(F)c1)C(=O)O [m-fluorophenylalanine] | All of the strains demonstrated m-fluorophenylalanine resistance | – | – | – | – |
| N[C@@H](Cc1ccccc1)C(=O)O [Phenylalanine, phenylalanine] | – | 112% | 94% | 107% | 99% |
| N[C@@H](Cc1ccc(O)cc1)C(=O)O [Tyrosine, tyrosine] | – | 109% | 51% | – | 88% |
